Where “and” joins values, the source holds several entries; their conditions need not be identical. Equal values may be shown once. Read-outs that look alike come from different tables or passages of the source.
How the values were obtained:
[1] = approximate, ref Anatrace catalogue, cited from earlier work
[2] = biological target: T1, AF647‐labeled hCD1d (Homo sapiens, UniProt P15813+P61769); assay: Microscale thermophoresis (MST) binding assay
T1 construct: TEV protease cleavage site ENLYFQS (C); BirA biotinylation site (C); His7 (C); made in house; host or cells: TurboCHO cells (GenScript)
From the text: The experimental limitations of ITF, such as low instrument sensitivity, high sample consumption, signal overlap with some ligands, and low throughput (Fossum et al., [2023]), made it necessary to employ alternative, complementary assays to quantify detergent binding to hCD1d. […] MST measures the diffusion of fluorescent molecules in response to microscopic temperature gradients (Seidel et al., [2013]). When a protein forms a complex with a ligand, changes in hydrodynamic properties, charge, or solvation energy alter its thermophoretic behavior, allowing detection of binding events. To perform MST experiments, Alexa Fluor 647 (AF647) dye was covalently attached to the primary amines of hCD1d via standard N‐hydroxysuccinimide coupling chemistry (Anderson et al., [1964]). The concentration of AF647‐hCD1d was kept constant, and the change in MST signal was measured as a function of increasing detergent concentration (Figure S3). Like ITF, any lipid or detergent that destabilizes CD1 can also alter the MST signal since unfolding changes the protein's Stokes radius and its thermophoretic behavior. […] This is why we compare MST results with ITF and nanoDSF, as described below.
For MST, hCD1d was fluorescently labeled with AF647‐NHS Ester (Invitrogen #A20006). Briefly, a 10 mM stock of AF647‐NHS was prepared in anhydrous DMSO. Then, 100 μL of 50 μM hCD1d in 1X PBS pH 7.4 was mixed with 1 μL of 10 mM AF647‐NHS (1:2 molar ratio of protein: dye). The mixture was allowed to react for 1 h in the dark at 25°C. Unreacted dye was removed from the protein–dye conjugate by performing size exclusion chromatography in the dark with a Superdex 200 Increase 10/300 GL column at a flow rate of 0.5 mL/min in SEC buffer (100 mM NaCl, 20 mM sodium phosphate, pH 7.2). The degree of labeling was determined by a NanoDrop spectrophotometer at A647 nm (dye absorbance) and A280 nm (hCD1d absorbance). The degree of labeling was determined from the ratio of dye concentration to protein concentration. The degree of labeling was ~75%.
MST experiments were performed using a Monolith NT.115 instrument (NanoTemper Technologies) using Monolith standard capillaries and the red excitation laser setup. The following settings were applied for all MST experiments: excitation power: 30%–50%, MST power: medium, before MST time: 3 s, MST on time (IR laser): 20 seconds, and after MST time: 1 s. MST measurements were analyzed using the Monolith Affinity Analysis software v2.3 and exported for plotting in GraphPad Prism v10.1. Three replicates were performed, and data are presented as the mean ± standard deviation (n = 3).
MST measurements of 100 nM AF647‐hCD1d were acquired in the absence and presence of detergents in 1X PBS pH 7.4 at 25°C. Prior to data acquisition, hCD1d and detergent or lipid samples were incubated at 37°C overnight (~12 h) to simulate in vitro and in vivo loading conditions. […] For 18:1 LPC experiments: MST data of 100 nM AF647‐hCD1d were acquired in the absence and presence of 18:1 LPC in 1X PBS pH 7.4 at 25°C.

[3] = biological target: T2, recombinant human CD1d ectodomain/β2m complex (hCD1d) (Homo sapiens, UniProt P15813+P61769); assay: Intrinsic tryptophan fluorescence (ITF) binding assay
T2 construct: TEV protease cleavage site ENLYFQS (C); BirA biotinylation site (C); His7 (C); made in house; host or cells: TurboCHO cells (GenScript)
Description: For ITF assays, the concentration of hCD1d was kept constant, and intrinsic Trp fluorescence (excitation at 285 nm, emission at 335 nm) was measured as a function of increasing detergent concentration (Fossum et al., [2023]) (Figure S2). The change in relative fluorescence intensity (F − F 0/F 0) provides an indication of binding. […] This was due to limited detergent solubility and decreased hCD1d stability in the presence of a large excess of detergent (see below). […] SDS was the exception, for which Trp fluorescence of hCD1d decreased with added detergent. This could indicate a unique conformational change or destabilization of the protein.
ITF spectra were recorded from 300 to 500 nm using a Horiba FL3‐21 Fluorometer with the excitation wavelength of 285 nm and excitation/emission slits of 6.2 nm. Fluorescence spectra of 50 to 100 nM hCD1d were acquired in the absence and presence of detergents in 1X PBS pH 7.4 at 25°C. Prior to data acquisition, hCD1d and detergent or lipid samples were incubated at 37°C overnight (~12 h) to simulate in vitro and in vivo loading conditions. […] For 18:1 LPC experiments, fluorescence spectra of 100 nM hCD1d were acquired in the absence and presence of 18:1 LPC in 1X PBS pH 7.4 at 25°C. […] For all ITF experiments, the change in fluorescence signal (F − F 0/F 0) was determined at 335 nm. Three replicates were performed, and data are presented as the mean ± standard deviation (n = 3). K D values were fitted with non‐linear regression in GraphPad Prism v10.1.

T2 sequence (P61769+P15813 fused): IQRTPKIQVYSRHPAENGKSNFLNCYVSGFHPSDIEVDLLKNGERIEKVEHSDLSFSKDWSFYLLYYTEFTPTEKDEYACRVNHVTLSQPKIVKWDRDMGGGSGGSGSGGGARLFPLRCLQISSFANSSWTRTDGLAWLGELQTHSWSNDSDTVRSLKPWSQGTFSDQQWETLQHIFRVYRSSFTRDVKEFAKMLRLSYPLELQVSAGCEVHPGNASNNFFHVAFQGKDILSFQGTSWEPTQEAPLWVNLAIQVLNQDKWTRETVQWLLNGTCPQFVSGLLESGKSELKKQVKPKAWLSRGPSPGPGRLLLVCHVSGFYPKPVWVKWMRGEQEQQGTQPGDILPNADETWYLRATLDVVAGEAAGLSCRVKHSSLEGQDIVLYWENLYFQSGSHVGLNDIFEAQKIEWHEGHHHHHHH
T1 sequence (P61769+P15813 fused): as above

Tween 20
CMC [1]: 59 µM | CMC ([1]; weight/volume): 0.0072% | Fnorm (rep 1-3) ([2]; 3.05176e-8 M detergent): 810.612 ‰ and 815.192 ‰ and 809.256 ‰ | Fnorm (rep 1-3) ([2]; 6.10352e-8 M detergent): 813.29 ‰ and 812.34 ‰ and 811.415 ‰ | Fnorm (rep 1-3) ([2]; 1.2207e-7 M detergent): 817.136 ‰ and 816.199 ‰ and 816.479 ‰ | Fnorm (rep 1-3) ([2]; 2.44141e-7 M detergent): 815.645 ‰ and 816.365 ‰ and 812.483 ‰ | Fnorm (rep 1-3) ([2]; 4.88281e-7 M detergent): 818.589 ‰ and 818.547 ‰ and 817.485 ‰ | Fnorm (rep 1-3) ([2]; 9.76563e-7 M detergent): 822.035 ‰ and 829.676 ‰ and 823.26 ‰ | Fnorm (rep 1-3) ([2]; 1.95313e-6 M detergent): 824.959 ‰ and 826.615 ‰ and 828.828 ‰ | Fnorm (rep 1-3) ([2]; 3.90625e-6 M detergent): 831.241 ‰ and 838.502 ‰ and 830.859 ‰ | Fnorm (rep 1-3) ([2]; 7.8125e-6 M detergent): 839.917 ‰ and 838.414 ‰ and 840.568 ‰ | Fnorm (rep 1-3) ([2]; 1.5625e-5 M detergent): 845.364 ‰ and 842.629 ‰ and 839.392 ‰ | Fnorm (rep 1-3) ([2]; 3.125e-5 M detergent): 839.617 ‰ and 847.737 ‰ and 840.958 ‰ | Fnorm (rep 1-3) ([2]; 6.25e-5 M detergent): 842.166 ‰ and 843.948 ‰ and 838.707 ‰ | Fnorm (rep 1-3) ([2]; 0.000125 M detergent): 841.26 ‰ and 840.691 ‰ and 839.447 ‰ | Fnorm (rep 1-3) ([2]; 0.00025 M detergent): 843.661 ‰ and 845.01 ‰ and 840.579 ‰ | Fnorm (rep 1-3) ([2]; 0.0005 M detergent): 843.68 ‰ and 846.334 ‰ and 839.195 ‰ | Fnorm (rep 1-3) ([2]; 0.001 M detergent, 100 nM AF647‐hCD1d): 842.084 ‰ and 846.496 ‰ and 844.53 ‰ | Kd ([2]; Figure 5B, detergent binding to hCD1d, read-out: MST - Kd (uM) average): 1.79 µM | Kd ([2]; detergent with 100 nM AF647‐labeled hCD1d, 25°C, apparent, read-out: K D (MST)): 1.8 ± 0.5 µM | F-F0/F0 (rep 1-3) ([3]; 3.0518e-8 M detergent): 0 | F-F0/F0 (rep 1-3) ([3]; 7.8125e-6 M detergent): 0.397 and 0.3783 and 0.411 | F-F0/F0 (rep 1-3) ([3]; 1.5625e-5 M detergent): 0.321 and 0.292 and 0.428 | F-F0/F0 (rep 1-3) ([3]; 3.125e-5 M detergent): 0.321 and 0.2971 and 0.409 | F-F0/F0 (rep 1-3) ([3]; 6.25e-5 M detergent): 0.469 and 0.4298 and 0.387 | F-F0/F0 (rep 1-3) ([3]; 0.000125 M detergent): 0.384 and 0.3339 and 0.39 | F-F0/F0 (rep 1-3) ([3]; 0.00025 M detergent): 0.511 and 0.3507 and 0.554 | F-F0/F0 (rep 1-3) ([3]; 0.0005 M detergent): 0.462 and 0.3634 and 0.631 | Kd ([3]; Figure 5A, detergent binding to hCD1d, read-out: ITF - Kd (uM) average): 4.9 µM | Kd ([3]; detergent with 100 nM hCD1d, 25°C, 1X PBS pH 7.4, apparent, read-out: K D (ITF)): 4.9 ± 0.7 µM
